23 compounds from US7872018B2, “Compounds and methods for kinase modulation, and indications therefor” (Plexxikon, Inc., priority 2006, dated 2011) can be followed below.

One assay has as its target B-Raf V600E (Homo sapiens, UniProt P15056, V600E). Briefly: B-Raf V600E kinase activity assay. Conditions: under the test conditions employed; read-out: IC50 toward kinase B-Raf V600E. The format is biochemical.
The target of a further assay is T1, Kit (Homo sapiens, UniProt P10721).
T1 construct: P1332.N6 BI PTP KIT M552-K948-X COD; made in house; host or cells: E. coli BL21(DE3)RIL, co-expressed with PTP1B
The assay is described as follows: c-kit biochemical assay (AlphaScreen or 33P-ATP). Conditions: under the test conditions employed; read-out: IC50 toward kinase Kit. On the procedure:
C-kit kinase was at 1 ng per sample.
The c-kit enzyme used in the above assay was either obtained from Cell Signaling Technology (Cat. #7754) or was prepared as follows: A plasmid encoding kit (DNA and encoded protein sequences shown below) was engineered using common polymerase chain reaction (PCR) methods. Complementary DNA cloned from various human tissues were purchased from Invitrogen, and these were used as substrates in the PCR reactions. Specific custom synthetic oligonucleotide primers were designed to initiate the PCR product, and also to provide the appropriate restriction enzyme cleavage sites for ligation with the plasmids. The entire sequence encoding the enzyme was made through a gene synthesis procedure, using custom synthetic oligonucleotides covering the entire coding sequence (Invitrogen, see below).

In a further assay the target is HGK (Homo sapiens, UniProt O95819). The assay is described as follows: HGK (MAP4K4) biochemical assay (AlphaScreen). The following applies: under the test conditions employed; read-out: IC50 toward kinase HGK. On the procedure: Substrate was 10 nM biotin-ERM (T567/T564/T558, Cell Signaling, Inc., cat#1344). MAP4K4 kinase was at 0.5 ng per sample. After incubation of the kinase reaction for 40 min at room temperature, 5 μl of donor beads and protein A acceptor beads (Perkin Elmer Life Science, cat#67606017) at final concentration 1 μg/ml in stop buffer (20 mM Tris, pH 7.4, 200 mM Nacl, 100 mM EDTA, 0.03% BSA) was added, along with Phospho-ERM Antibody (T567/T564/T558, Cell Signaling, Inc., cat#3141) at 1:1000 dilution. […] Phosphorylated substrate results in binding of the antibody which binds to protein A acceptor bead and association of the donor and acceptor beads is such that the signal correlates with kinase activity.

The target of the next assay is T2, TrkA (Homo sapiens, UniProt P04629).
T2 construct: purchased Upstate Biotech 14-571
Briefly: TrkA biochemical assay (AlphaScreen). The following applies: under the test conditions employed; read-out: IC50 toward kinase TrkA. On the procedure:
Compounds tested were dissolved in DMSO (1 μL) and added to a white 384-well plate (Costar #3705). […] Each sample was at 5% DMSO. The plate was then incubated for 40 minutes at room temperature.

In another assay the target is T3, Fms (Homo sapiens, UniProt P07333).
T3 construct: purchased Upstate Biotech 14-551
Briefly: Fms biochemical assay (AlphaScreen or 33P-ATP). Conditions: under the test conditions employed; read-out: IC50 toward kinase Fms. The source says:
Each sample was at 5% DMSO.

T1 sequence (P10721 552-948): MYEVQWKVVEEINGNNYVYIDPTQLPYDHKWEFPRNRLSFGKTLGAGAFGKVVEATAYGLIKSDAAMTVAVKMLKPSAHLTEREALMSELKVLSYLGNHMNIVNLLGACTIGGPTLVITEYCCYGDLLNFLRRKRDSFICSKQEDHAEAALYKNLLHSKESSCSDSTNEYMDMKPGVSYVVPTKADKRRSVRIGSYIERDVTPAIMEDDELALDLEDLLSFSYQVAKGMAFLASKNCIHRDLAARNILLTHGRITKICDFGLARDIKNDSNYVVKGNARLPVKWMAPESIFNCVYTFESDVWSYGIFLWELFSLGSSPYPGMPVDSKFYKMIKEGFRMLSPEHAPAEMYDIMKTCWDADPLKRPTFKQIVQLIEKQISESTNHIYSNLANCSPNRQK
T3 sequence (P07333 20-972): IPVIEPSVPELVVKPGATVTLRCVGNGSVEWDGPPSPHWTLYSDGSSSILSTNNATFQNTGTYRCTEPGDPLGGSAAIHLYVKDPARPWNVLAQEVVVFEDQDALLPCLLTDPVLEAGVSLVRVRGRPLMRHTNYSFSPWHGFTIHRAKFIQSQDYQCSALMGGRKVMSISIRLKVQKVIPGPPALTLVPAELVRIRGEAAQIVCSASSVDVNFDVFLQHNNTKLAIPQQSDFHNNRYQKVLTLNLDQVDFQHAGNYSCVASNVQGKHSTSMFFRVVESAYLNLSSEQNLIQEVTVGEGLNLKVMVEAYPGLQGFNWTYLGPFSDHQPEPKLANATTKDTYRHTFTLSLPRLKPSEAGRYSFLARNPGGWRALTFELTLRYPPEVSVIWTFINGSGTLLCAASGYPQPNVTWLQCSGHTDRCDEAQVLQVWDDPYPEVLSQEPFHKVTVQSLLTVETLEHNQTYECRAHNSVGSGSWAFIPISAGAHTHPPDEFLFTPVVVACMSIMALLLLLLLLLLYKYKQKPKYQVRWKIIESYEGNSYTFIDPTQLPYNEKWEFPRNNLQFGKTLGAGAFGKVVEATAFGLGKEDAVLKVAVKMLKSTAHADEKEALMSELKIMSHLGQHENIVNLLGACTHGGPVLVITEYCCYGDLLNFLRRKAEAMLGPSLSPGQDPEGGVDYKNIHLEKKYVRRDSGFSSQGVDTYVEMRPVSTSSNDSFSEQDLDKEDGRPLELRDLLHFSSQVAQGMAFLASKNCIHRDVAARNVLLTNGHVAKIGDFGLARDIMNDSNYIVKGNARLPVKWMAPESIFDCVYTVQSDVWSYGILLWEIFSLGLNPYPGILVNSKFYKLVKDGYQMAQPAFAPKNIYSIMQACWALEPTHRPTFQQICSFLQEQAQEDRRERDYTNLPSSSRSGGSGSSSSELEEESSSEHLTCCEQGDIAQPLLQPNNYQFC
HGK, sequence (O95819 whole entry): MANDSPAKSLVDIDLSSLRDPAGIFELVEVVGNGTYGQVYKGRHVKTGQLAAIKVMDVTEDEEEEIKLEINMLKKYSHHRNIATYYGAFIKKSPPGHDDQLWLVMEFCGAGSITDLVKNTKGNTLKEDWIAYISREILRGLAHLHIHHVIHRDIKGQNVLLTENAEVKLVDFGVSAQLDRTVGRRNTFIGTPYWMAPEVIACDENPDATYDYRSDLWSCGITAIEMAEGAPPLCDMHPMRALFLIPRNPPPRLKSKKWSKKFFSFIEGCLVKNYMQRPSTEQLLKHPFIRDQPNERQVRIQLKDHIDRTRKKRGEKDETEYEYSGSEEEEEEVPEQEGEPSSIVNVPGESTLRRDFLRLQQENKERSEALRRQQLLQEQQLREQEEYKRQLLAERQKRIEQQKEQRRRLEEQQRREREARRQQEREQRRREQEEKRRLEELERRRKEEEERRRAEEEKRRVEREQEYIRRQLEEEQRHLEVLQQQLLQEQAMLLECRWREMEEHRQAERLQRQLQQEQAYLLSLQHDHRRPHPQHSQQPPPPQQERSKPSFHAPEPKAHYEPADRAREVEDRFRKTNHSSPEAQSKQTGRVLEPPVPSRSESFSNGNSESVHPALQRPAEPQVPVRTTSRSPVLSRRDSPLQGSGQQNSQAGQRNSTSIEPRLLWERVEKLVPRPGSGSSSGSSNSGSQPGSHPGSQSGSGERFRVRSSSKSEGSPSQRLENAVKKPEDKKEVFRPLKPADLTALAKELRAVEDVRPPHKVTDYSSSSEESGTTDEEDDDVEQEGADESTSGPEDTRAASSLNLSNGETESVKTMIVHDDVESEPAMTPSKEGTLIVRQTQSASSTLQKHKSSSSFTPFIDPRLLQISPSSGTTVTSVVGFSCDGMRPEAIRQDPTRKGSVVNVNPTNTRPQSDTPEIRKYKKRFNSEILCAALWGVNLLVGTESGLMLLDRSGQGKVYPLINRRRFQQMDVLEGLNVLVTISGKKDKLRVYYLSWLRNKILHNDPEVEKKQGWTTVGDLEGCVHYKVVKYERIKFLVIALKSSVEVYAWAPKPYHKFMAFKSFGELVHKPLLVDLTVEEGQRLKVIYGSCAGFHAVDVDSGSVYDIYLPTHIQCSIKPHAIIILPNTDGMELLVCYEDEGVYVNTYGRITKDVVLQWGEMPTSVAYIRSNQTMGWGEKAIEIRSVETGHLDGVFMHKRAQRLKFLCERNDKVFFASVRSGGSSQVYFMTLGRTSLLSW
T2 sequence (P04629 33-796): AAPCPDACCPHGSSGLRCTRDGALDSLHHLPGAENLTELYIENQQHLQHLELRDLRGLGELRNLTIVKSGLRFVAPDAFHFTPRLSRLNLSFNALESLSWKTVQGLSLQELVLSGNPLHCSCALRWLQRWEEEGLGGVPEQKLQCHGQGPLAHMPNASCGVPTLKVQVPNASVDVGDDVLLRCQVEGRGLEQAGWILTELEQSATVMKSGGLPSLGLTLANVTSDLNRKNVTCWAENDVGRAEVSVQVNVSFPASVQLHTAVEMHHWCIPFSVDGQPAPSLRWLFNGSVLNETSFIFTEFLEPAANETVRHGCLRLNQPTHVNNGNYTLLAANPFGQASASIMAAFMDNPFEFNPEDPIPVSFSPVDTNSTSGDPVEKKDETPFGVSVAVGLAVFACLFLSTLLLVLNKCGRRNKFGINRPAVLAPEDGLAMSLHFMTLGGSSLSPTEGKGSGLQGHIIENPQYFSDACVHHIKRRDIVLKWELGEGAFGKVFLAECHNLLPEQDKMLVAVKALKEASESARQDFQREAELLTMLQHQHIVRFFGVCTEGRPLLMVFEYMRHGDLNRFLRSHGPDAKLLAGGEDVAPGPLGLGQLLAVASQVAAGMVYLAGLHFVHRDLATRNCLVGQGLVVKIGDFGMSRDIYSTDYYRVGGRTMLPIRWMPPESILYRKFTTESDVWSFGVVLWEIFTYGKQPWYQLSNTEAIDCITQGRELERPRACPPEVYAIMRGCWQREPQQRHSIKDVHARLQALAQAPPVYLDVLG
B-Raf V600E, sequence (P15056 whole entry V600E): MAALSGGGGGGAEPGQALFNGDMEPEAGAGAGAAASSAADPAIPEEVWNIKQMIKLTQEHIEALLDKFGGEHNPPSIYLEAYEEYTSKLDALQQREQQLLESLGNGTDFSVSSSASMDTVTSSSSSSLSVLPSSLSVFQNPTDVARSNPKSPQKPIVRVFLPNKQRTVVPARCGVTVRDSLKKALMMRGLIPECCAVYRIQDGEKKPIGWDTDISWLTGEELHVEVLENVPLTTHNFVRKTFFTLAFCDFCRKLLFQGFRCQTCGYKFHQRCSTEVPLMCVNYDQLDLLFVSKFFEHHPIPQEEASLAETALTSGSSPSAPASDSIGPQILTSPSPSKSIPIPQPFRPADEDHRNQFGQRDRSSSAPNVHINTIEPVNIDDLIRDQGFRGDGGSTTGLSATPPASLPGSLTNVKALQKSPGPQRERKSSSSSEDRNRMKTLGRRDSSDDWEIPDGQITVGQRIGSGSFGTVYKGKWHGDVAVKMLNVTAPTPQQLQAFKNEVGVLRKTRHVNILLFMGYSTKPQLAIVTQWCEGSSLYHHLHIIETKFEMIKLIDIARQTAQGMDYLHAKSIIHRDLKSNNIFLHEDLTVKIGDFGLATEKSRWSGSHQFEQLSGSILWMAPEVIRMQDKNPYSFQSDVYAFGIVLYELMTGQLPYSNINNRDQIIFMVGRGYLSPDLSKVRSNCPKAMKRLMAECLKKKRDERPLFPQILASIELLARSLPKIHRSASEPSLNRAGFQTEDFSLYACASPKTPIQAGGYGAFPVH

`COc1cc(C(=O)c2c[nH]c3ncccc23)ccc1OCc1ccc(Cl)cc1` [P-1698, [4-(4-Chloro-benzyloxy)-3-methoxy-phenyl]-(1H-pyrrolo[2,3-b]pyridin-3-yl)-methanone]: the half-inhibitory concentration (IC50) at B-Raf V600E was not above 10 µM.
In the case of `COc1cc(Cc2c[nH]c3ncc(Cl)cc23)c(F)cc1OCCc1nc2ccccc2[nH]1` [P-2180, 2-{2-[4-(5-Chloro-1H-pyrrolo[2,3-b]pyridin-3-ylmethyl)-5-fluoro-2-methoxy-phenoxy]-ethyl}-1H-benzoimidazole], the IC50 at Kit, on HGK, at TrkA and on Fms was not above 10 µM throughout.
For `COC(=O)c1cnc2[nH]cc(Cc3cc(OC)c(OCc4nc5ccccc5[nH]4)cc3F)c2c1` [P-2174, 3-[4-(1H-Benzimidazol-2-ylmethoxy)-2-fluoro-5-methoxy-benzyl]-1H-pyrrolo[2,3-b]pyridine-5-carboxylic acid methyl ester], the half-maximal inhibitory concentration (IC50) at Kit, on HGK, on TrkA and at Fms was not above 10 µM each time.
Take `Fc1cc(Cc2c[nH]c3ncc(Cl)cc23)c(Cl)cc1OCc1nc2ccccc2[nH]1` [P-2099, 2-[5-Chloro-4-(5-chloro-1H-pyrrolo[2,3-b]pyridin-3-ylmethyl)-2-fluoro-phenoxymethyl]-1H-benzoimidazole]: the IC50 on HGK, on TrkA and on Fms was not above 10 µM in each case.
Regarding `COc1cc(Cc2c[nH]c3ncc(Cl)cc23)c(F)cc1OCc1nc2cc(F)ccc2[nH]1` [P-2179, 2-[4-(5-Chloro-1H-pyrrolo[2,3-b]pyridin-3-ylmethyl)-5-fluoro-2-methoxy-phenoxymethyl]-5-fluoro-1H-benzoimidazole], the IC50 on TrkA and on Fms was not above 10 µM throughout.
For the compound `COc1cc(Cc2c[nH]c3ncc(C#N)cc23)c(F)cc1OCc1nc2ccccc2[nH]1` [P-2171, 3-[4-(1H-Benzoimidazol-2-ylmethoxy)-2-fluoro-5-methoxy-benzyl]-1H-pyrrolo[2,3-b]pyridine-5-carbonitrile], the IC50 at HGK, on TrkA and on Fms was not above 10 µM in each case.
In the case of `COc1cc(Cc2c[nH]c3ncc(Cl)cc23)c(F)cc1OCc1nc2cc(Cl)c(Cl)cc2[nH]1` [P-2172, 5,6-Dichloro-2-[4-(5-chloro-1H-pyrrolo[2,3-b]pyridin-3-ylmethyl)-5-fluoro-2-methoxy-phenoxymethyl]-1H-benzoimidazole], the IC50 on Kit, on HGK, at TrkA and at Fms was not above 10 µM throughout.
Take `COc1cc(Cc2c[nH]c3ncc(Cl)cc23)c(F)cc1OC(C)c1nc2ccccc2[nH]1` (centres unmarked) [P-2110, 2-{1-[4-(5-Chloro-1H-pyrrolo[2,3-b]pyridin-3-ylmethyl)-5-fluoro-2-methoxy-phenoxy]-ethyl}-1H-benzoimidazole]: the IC50 on Kit, on HGK, at TrkA and at Fms was not above 10 µM in each case.
With `COc1cnc2[nH]cc(Cc3cc(OC)c(OCc4ccc(Cl)cc4F)cc3F)c2c1` [P-1885, 3-[4-(4-Chloro-2-fluoro-benzyloxy)-2-fluoro-5-methoxy-benzyl]-5-methoxy-1H-pyrrolo[2,3-b]pyridine], the IC50 on TrkA was not above 10 µM.
In the case of `COc1cc(Cc2c[nH]c3ncc(Cl)cc23)c(F)cc1OCc1nc2ccccc2n1C` [P-2106, 2-[4-(5-Chloro-1H-pyrrolo[2,3-b]pyridin-3-ylmethyl)-5-fluoro-2-methoxy-phenoxymethyl]-1-methyl-1H-benzoimidazole], the IC50 on Kit, at HGK, on TrkA and on Fms was not above 10 µM throughout.
As to `COc1cc(Cc2c[nH]c3ncccc23)c(F)cc1OCc1cccnc1` [P-2038, 3-[2-Fluoro-5-methoxy-4-(pyridin-3-ylmethoxy)-benzyl]-1H-pyrrolo[2,3-b]pyridine], the IC50 on TrkA is not above 10 µM.
As for `COc1cc(Cc2c[nH]c3ncc(C(=O)O)cc23)c(F)cc1OCc1nc2ccccc2[nH]1` [P-2175, 3-[4-(1H-Benzoimidazol-2-ylmethoxy)-2-fluoro-5-methoxy-benzyl]-1H-pyrrolo[2,3-b]pyridine-5-carboxylic acid], the IC50 on HGK, on TrkA and at Fms was not above 10 µM throughout.
As for `COc1cnc2[nH]cc(Cc3cc(Cl)c(OCc4nc5ccccc5[nH]4)cc3F)c2c1` [P-2116, 2-[2-Chloro-5-fluoro-4-(5-methoxy-1H-pyrrolo[2,3-b]pyridin-3-ylmethyl)-phenoxymethyl]-1H-benzoimidazole], the IC50 on HGK, at TrkA and at Fms was not above 10 µM throughout.
With `COc1cc(Cc2c[nH]c3ncccc23)c(Cl)cc1OCc1nc2ccccc2[nH]1` [P-2103, 2-[5-Chloro-2-methoxy-4-(1H-pyrrolo[2,3-b]pyridin-3-ylmethyl)-phenoxymethyl]-1H-benzoimidazole], the IC50 on HGK, at TrkA and on Fms was not above 10 µM throughout.
As for `Fc1cc(OCc2nc3ccccc3[nH]2)cc(F)c1Cc1c[nH]c2ncccc12` [P-2102, 2-[3,5-Difluoro-4-(1H-pyrrolo[2,3-b]pyridin-3-ylmethyl)-phenoxymethyl]-1H-benzoimidazole], the IC50 at HGK and on Fms was not above 10 µM each time.
Take `COc1ccc2[nH]c(COc3cc(F)c(Cc4c[nH]c5ncccc45)cc3OC)nc2c1` [P-2113, 2-[5-Fluoro-2-methoxy-4-(1H-pyrrolo[2,3-b]pyridin-3-ylmethyl)-phenoxymethyl]-6-methoxy-1H-benzoimidazole]: the IC50 at HGK and on Fms was not above 10 µM throughout.
For the compound `COc1cc(Cc2c[nH]c3ncccc23)c(F)cc1OCc1nc2ccc(Cl)cc2[nH]1` [P-2112, 6-Chloro-2-[5-fluoro-2-methoxy-4-(1H-pyrrolo[2,3-b]pyridin-3-ylmethyl)-phenoxymethyl]-1H-benzoimidazole], the IC50 at Kit, at HGK, at TrkA and at Fms was not above 10 µM in each case.
For the compound `COc1cc(Cc2c[nH]c3ncc(Cl)cc23)c(Cl)cc1OCc1nc2ccccc2[nH]1` [P-2104, 2-[5-Chloro-4-(5-chloro-1H-pyrrolo[2,3-b]pyridin-3-ylmethyl)-2-methoxy-phenoxymethyl]-1H-benzoimidazole], the half-maximal inhibitory concentration (IC50) at HGK, at TrkA and at Fms was not above 10 µM throughout.
As for `COc1cc(Cc2c[nH]c3ncc(Cl)cc23)c(F)cc1OCc1nc2cc(C(F)(F)F)ccc2[nH]1` [P-2178, 2-[4-(5-Chloro-1H-pyrrolo[2,3-b]pyridin-3-ylmethyl)-5-fluoro-2-methoxy-phenoxymethyl]-5-trifluoromethyl-1H-benzoimidazole], the IC50 on Kit, on HGK, on TrkA and on Fms was not above 10 µM throughout.
Regarding `COc1cc(Cc2c[nH]c3ncc(F)cc23)c(F)cc1OCc1nc2ccccc2[nH]1` [P-2115, 2-[5-Fluoro-4-(5-fluoro-1H-pyrrolo[2,3-b]pyridin-3-ylmethyl)-2-methoxy-phenoxymethyl]-1H-benzoimidazole], the IC50 at HGK, at TrkA and on Fms was not above 10 µM each time.
With `COc1cc(Cc2c[nH]c3ncc(C)cc23)c(F)cc1OCc1nc2cc(Cl)ccc2[nH]1` [P-2184, 5-Chloro-2-[5-fluoro-2-methoxy-4-(5-methyl-1H-pyrrolo[2,3-b]pyridin-3-ylmethyl)-phenoxymethyl]-1H-benzoimidazole], the IC50 on Kit, at HGK and at Fms was not above 10 µM throughout.
On to `COc1ccc2[nH]c(COc3cc(F)c(Cc4c[nH]c5ncc(Cl)cc45)cc3OC)nc2c1` [P-2182, 2-[4-(5-Chloro-1H-pyrrolo[2,3-b]pyridin-3-ylmethyl)-5-fluoro-2-methoxy-phenoxymethyl]-5-methoxy-1H-benzoimidazole], for which the half-maximal inhibitory concentration (IC50) on HGK, at TrkA and at Fms was not above 10 µM throughout.
Take `COc1cc(Cc2c[nH]c3ncc(Cl)cc23)c(F)cc1OCc1nc2cc(Cl)ccc2[nH]1` [P-2111, 6-Chloro-2-[4-(5-chloro-1H-pyrrolo[2,3-b]pyridin-3-ylmethyl)-5-fluoro-2-methoxy-phenoxymethyl]-1H-benzoimidazole]: the IC50 on Kit, on HGK, on TrkA and on Fms was not above 10 µM each time.
